Measurements from US11117892B2, “Pyrrolo-pyridine derivative compound, method for preparing same, and pharmaceutical composition containing same as active ingredient for prevention or treatment of protein kinase-related diseases” (DAEGU-GYEONGBUK MEDICAL INNOVATION FOUNDATION, priority 2017, dated 2021).
Like-named read-outs stand apart in the source and are kept apart here.

Tests used:
Experiment in all cases: scanMAX Kinase assay panel
Format in all cases: binding
Settings in all cases: read-out: % control
CSNK1A1L = CSNK1A1L (Homo sapiens (Human), UniProt Q8N752)
Sequence of CSNK1A1L (Q8N752 whole entry): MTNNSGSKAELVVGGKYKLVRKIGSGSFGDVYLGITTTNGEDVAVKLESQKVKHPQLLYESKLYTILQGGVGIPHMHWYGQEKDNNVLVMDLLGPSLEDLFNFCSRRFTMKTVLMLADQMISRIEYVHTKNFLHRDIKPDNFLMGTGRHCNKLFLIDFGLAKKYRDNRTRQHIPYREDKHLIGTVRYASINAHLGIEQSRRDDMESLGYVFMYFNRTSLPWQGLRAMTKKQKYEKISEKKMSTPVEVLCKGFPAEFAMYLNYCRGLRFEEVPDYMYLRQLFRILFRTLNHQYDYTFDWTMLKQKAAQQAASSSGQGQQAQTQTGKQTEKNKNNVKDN
Experimental: (§1) DiscoverX Co. was asked to measure the enzyme (kinase) selectivity, and the experiment was performed using scanMAX™ Kinase assay panel.
(§2) (Example Compound−Positive Control)/(Negative Control−Positive Control)×100 [Equation 1]
(§3) Herein, the positive control indicates the compound showing the % control of 0%, and the negative control indicates DMSO showing the % control of 100%.

TAK1 = TAK1 (Homo sapiens (Human), UniProt O43318)
Experimental: as §1, §2, §3

FLT3(N841I) = FLT3(N841I) (Homo sapiens (Human), UniProt P36888, N841I)
Experimental: as §1, §2, §3

PIK3CA(E542K) = PIK3CA(E542K) (Homo sapiens (Human), UniProt P42336, E542K)
Experimental: as §1, §2, §3

BMX = BMX (Homo sapiens (Human), UniProt P51813)
Experimental: as §1, §2, §3

CDK4-cyclinD1 = CDK4-cyclinD1 (Homo sapiens (Human), UniProt P11802)
Sequence of CDK4-cyclinD1 (P11802 whole entry): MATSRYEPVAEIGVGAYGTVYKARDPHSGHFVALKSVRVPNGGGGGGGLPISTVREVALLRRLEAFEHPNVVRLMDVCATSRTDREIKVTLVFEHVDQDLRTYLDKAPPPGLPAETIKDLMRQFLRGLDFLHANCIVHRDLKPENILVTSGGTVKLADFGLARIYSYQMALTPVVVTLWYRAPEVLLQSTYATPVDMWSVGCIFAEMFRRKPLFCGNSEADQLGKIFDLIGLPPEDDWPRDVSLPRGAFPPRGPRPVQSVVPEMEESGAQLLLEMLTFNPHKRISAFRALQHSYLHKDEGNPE
Sequence of CDK4-cyclinD1 (P24385 whole entry partner): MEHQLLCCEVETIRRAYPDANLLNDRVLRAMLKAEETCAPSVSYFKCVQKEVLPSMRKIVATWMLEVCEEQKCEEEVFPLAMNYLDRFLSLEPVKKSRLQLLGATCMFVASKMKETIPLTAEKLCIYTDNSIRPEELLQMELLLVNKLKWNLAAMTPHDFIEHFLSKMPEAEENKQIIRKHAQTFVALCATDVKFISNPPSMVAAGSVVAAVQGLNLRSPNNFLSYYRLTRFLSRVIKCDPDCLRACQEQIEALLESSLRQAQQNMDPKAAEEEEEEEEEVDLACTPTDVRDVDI
Experimental: as §1, §2, §3

EPHB4 = EPHB4 (Homo sapiens (Human), UniProt P54760)
Experimental: as §1, §2, §3

RET(V804L) = RET(V804L) (Homo sapiens (Human), UniProt P07949, V804L)
Experimental: as §1, §2, §3

DAPK2 = DAPK2 (Homo sapiens (Human), UniProt Q9UIK4)
Experimental: as §1, §2, §3

HPK1 = HPK1 (Homo sapiens (Human), UniProt Q92918)
Experimental: as §1, §2, §3

TNIK = TNIK (Homo sapiens (Human), UniProt Q9UKE5)
Experimental: as §1, §2, §3

FLT1 = FLT1 (Homo sapiens (Human), UniProt P17948)
Experimental: as §1, §2, §3

AAK1 = AAK1 (Homo sapiens (Human), UniProt Q2M2I8)
Experimental: as §1, §2, §3

MET(M1250T) = MET(M1250T) (Homo sapiens (Human), UniProt P08581, M1250T)
Experimental: as §1, §2, §3

PRKX = PRKX (Homo sapiens (Human), UniProt P51817)
Experimental: as §1, §2, §3

PRKR = PRKR (Homo sapiens (Human), UniProt P19525)
Experimental: as §1, §2, §3

TRPM6 = TRPM6 (Homo sapiens (Human), UniProt Q9BX84)
Sequence of TRPM6 (Q9BX84 whole entry): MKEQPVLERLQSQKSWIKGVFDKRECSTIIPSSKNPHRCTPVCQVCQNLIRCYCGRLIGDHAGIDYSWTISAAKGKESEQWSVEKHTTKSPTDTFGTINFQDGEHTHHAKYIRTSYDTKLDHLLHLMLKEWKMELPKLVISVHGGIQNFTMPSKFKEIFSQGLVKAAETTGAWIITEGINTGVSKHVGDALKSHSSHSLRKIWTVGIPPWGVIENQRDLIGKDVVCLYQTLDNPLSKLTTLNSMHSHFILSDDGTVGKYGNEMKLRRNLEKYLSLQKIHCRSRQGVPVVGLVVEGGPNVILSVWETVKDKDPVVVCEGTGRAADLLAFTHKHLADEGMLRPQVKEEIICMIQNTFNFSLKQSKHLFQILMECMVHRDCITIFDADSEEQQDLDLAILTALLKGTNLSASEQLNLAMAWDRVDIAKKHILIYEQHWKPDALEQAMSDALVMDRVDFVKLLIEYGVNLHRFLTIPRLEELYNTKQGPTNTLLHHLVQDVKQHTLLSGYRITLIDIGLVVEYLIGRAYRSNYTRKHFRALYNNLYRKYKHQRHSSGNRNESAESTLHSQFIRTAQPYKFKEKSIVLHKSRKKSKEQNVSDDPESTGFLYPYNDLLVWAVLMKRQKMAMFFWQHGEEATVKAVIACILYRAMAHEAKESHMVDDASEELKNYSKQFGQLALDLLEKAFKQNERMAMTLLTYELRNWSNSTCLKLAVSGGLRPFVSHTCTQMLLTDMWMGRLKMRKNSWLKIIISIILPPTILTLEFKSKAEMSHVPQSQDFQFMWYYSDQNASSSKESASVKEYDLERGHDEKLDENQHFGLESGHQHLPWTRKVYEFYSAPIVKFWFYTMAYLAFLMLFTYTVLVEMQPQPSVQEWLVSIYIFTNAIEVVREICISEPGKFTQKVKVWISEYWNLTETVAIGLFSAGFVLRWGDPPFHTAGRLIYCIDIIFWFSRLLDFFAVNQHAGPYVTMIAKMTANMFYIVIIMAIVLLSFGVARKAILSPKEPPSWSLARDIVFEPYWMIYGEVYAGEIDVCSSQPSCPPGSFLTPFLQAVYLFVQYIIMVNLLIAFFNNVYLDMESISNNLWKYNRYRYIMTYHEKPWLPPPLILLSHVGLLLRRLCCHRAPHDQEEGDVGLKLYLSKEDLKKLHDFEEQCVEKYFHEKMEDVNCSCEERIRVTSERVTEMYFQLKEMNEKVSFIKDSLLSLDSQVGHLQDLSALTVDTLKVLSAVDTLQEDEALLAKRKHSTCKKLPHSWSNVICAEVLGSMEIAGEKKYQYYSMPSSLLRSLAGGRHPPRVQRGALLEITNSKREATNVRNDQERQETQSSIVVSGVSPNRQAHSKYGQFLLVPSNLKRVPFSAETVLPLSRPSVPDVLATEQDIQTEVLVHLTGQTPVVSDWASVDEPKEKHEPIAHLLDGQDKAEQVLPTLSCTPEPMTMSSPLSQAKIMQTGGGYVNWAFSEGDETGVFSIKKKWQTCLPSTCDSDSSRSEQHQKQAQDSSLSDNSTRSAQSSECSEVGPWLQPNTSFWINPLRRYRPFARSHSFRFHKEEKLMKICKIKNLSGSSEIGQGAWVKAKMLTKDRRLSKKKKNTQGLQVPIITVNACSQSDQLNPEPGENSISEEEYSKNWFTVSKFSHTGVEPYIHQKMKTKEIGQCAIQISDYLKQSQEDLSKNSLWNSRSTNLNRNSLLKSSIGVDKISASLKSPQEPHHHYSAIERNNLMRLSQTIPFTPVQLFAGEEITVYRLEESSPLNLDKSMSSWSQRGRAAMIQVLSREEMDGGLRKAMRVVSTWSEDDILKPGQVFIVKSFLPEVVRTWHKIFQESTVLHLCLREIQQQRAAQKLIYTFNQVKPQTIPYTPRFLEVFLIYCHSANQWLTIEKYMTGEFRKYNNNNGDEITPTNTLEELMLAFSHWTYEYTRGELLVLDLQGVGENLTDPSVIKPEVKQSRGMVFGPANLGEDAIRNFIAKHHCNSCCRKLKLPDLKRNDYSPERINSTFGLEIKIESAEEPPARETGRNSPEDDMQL
Experimental: as §1, §2, §3

SRC = SRC (Homo sapiens (Human), UniProt P12931)
Experimental: as §1, §2, §3

EGFR(G719S) = EGFR(G719S) (Homo sapiens (Human), UniProt P00533, G719S)
Experimental: as §1, §2, §3

[1] = molecular target: RSK2(Kin.Dom.2-C-terminal) (Homo sapiens (Human), UniProt P51812)
Sequence of RSK2(Kin.Dom.2-C-terminal) (P51812 422-679): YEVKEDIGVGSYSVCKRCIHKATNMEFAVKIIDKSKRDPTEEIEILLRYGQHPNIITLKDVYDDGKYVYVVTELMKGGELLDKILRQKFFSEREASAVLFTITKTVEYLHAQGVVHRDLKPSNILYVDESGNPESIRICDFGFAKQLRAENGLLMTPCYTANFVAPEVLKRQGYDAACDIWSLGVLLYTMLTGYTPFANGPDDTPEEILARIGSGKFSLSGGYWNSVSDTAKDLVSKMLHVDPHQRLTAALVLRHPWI
Experimental: as §1, §2, §3

TAOK3 = TAOK3 (Homo sapiens (Human), UniProt Q9H2K8)
Experimental: as §1, §2, §3

MARK1 = MARK1 (Homo sapiens (Human), UniProt Q9P0L2)
Experimental: as §1, §2, §3

MAP3K4 = MAP3K4 (Homo sapiens (Human), UniProt Q9Y6R4)
Experimental: as §1, §2, §3

SNARK = SNARK (Homo sapiens (Human), UniProt Q9H093)
Sequence of SNARK (Q9H093 whole entry): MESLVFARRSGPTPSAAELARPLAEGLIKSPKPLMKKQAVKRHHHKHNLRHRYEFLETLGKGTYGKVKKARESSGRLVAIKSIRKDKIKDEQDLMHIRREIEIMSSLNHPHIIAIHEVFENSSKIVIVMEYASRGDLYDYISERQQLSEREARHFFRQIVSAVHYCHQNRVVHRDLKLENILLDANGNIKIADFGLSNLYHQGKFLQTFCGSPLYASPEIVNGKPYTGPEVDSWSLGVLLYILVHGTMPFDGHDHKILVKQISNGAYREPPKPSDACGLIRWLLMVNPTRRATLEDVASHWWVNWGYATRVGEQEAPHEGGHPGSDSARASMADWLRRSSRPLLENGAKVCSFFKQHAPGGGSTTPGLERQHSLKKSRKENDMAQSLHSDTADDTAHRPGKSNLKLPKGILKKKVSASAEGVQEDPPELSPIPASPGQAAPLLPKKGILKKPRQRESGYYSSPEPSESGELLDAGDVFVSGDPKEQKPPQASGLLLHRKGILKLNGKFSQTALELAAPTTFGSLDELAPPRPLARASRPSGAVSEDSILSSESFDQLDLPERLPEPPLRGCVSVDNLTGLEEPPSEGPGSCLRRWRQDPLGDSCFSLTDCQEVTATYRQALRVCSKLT
Experimental: as §1, §2, §3

PIK3CA(I800L) = PIK3CA(I800L) (Homo sapiens (Human), UniProt P42336, I800L)
Experimental: as §1, §2, §3

MAP3K1 = MAP3K1 (Homo sapiens (Human), UniProt Q13233)
Experimental: as §1, §2, §3

KIT(V559D) = KIT(V559D) (Homo sapiens (Human), UniProt P10721, V559D)
Experimental: as §1, §2, §3

CTK = CTK (Homo sapiens (Human), UniProt P42679)
Experimental: as §1, §2, §3

ASK2 = ASK2 (Homo sapiens (Human), UniProt O95382)
Experimental: as §1, §2, §3

[2] = molecular target: JAK3(JH1domain-catalytic) (Homo sapiens (Human), UniProt P52333)
Experimental: as §1, §2, §3

EGFR(L861Q) = EGFR(L861Q) (Homo sapiens (Human), UniProt P00533, L861Q)
Sequence of EGFR(L861Q) (P00533 25-1210 L861Q): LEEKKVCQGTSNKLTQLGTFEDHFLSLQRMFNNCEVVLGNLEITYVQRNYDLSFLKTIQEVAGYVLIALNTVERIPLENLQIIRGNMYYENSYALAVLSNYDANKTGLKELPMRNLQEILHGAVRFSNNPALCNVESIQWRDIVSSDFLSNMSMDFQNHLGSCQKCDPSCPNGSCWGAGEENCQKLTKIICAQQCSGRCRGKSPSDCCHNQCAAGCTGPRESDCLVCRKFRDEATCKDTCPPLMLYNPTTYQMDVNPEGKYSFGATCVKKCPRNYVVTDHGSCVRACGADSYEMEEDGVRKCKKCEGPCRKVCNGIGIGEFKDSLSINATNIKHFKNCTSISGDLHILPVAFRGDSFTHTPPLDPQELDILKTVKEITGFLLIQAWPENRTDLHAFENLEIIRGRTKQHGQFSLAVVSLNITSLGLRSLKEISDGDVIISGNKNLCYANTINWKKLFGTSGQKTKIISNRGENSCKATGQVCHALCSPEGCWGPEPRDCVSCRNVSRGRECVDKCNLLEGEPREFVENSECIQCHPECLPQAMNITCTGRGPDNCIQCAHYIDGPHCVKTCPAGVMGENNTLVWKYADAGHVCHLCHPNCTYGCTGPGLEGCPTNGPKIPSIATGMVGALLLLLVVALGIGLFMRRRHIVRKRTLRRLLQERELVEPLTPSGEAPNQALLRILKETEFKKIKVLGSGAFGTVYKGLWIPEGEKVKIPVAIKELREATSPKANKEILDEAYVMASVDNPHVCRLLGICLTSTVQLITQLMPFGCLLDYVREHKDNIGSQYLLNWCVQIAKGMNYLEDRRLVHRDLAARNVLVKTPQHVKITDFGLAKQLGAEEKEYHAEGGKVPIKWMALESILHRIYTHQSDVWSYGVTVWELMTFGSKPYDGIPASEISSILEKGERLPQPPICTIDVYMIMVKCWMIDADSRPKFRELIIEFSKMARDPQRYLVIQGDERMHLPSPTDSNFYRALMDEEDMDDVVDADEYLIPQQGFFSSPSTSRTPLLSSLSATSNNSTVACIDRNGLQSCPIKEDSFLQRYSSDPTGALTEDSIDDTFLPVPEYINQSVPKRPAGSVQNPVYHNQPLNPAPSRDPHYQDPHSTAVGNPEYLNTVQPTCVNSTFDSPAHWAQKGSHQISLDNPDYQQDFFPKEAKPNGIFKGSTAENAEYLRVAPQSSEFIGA
Experimental: as §1, §2, §3

KIT(D816V) = KIT(D816V) (Homo sapiens (Human), UniProt P10721, D816V)
Experimental: as §1, §2, §3

p38-beta = p38-beta (Homo sapiens (Human), UniProt Q15759)
Experimental: as §1, §2, §3

ANKK1 = ANKK1 (Homo sapiens (Human), UniProt Q8NFD2)
Experimental: as §1, §2, §3

HIPK1 = HIPK1 (Homo sapiens (Human), UniProt Q86Z02)
Experimental: as §1, §2, §3

CAMK4 = CAMK4 (Homo sapiens (Human), UniProt Q16566)
Experimental: as §1, §2, §3

GSK3A = GSK3A (Homo sapiens (Human), UniProt P49840)
Experimental: as §1, §2, §3

CSNK2A2 = CSNK2A2 (Homo sapiens (Human), UniProt P19784)
Experimental: as §1, §2, §3

`CCNc1cc(Nc2ccc(C(=O)N3CCC(N4CCOCC4)CC3)cc2OC)nc2[nH]cc(C#N)c12` [Example 18, 4-(ethylamino)-6-((2-methoxy-4-(4-morpholinopiperidine-1-carbonyl)phenyl)amino)-1H-pyrrolo[2,3-b]pyridine-3-carbonitrile] was tested, and the remaining binding at 1 µM (CSNK1A1L) was 3.1%, the remaining binding at 1 µM (TAK1) was 59% and the remaining binding at 1 µM (FLT3(N841I)) was 89%. It also gave a remaining binding at 1 µM (PIK3CA(E542K)) of 96%, a remaining binding at 1 µM (BMX) of 75% and a remaining binding at 1 µM (CDK4-cyclinD1) of 100%. The remaining binding at 1 µM (EPHB4) was 100%, the remaining binding at 1 µM (RET(V804L)) was 97% and the remaining binding at 1 µM (DAPK2) was 16%. It also gave a remaining binding at 1 µM (HPK1) of 76%, a remaining binding at 1 µM (TNIK) of 89% and a remaining binding at 1 µM (FLT1) of 46%. The remaining binding at 1 µM (AAK1) was 69%, the remaining binding at 1 µM (MET(M1250T)) was 100% and the remaining binding at 1 µM (PRKX) was 92%. The remaining binding at 1 µM (PRKR) was 95%, the remaining binding at 1 µM (TRPM6) was 87% and the remaining binding at 1 µM (SRC) was 100%. The remaining binding at 1 µM (EGFR(G719S)) was 80%, the remaining binding at 1 µM [1] was 100% and the remaining binding at 1 µM (TAOK3) was 94%. The remaining binding at 1 µM (MARK1) was 84%, the remaining binding at 1 µM (MAP3K4) was 96% and the remaining binding at 1 µM (SNARK) was 57%. The remaining binding at 1 µM (PIK3CA(I800L)) was 100%, the remaining binding at 1 µM (MAP3K1) was 90% and the remaining binding at 1 µM (KIT(V559D)) was 33%. It also gave a remaining binding at 1 µM (CTK) of 100%, a remaining binding at 1 µM (ASK2) of 82% and a remaining binding at 1 µM [2] of 54%. The remaining binding at 1 µM (EGFR(L861Q)) was 85%, the remaining binding at 1 µM (KIT(D816V)) was 82% and the remaining binding at 1 µM (p38-beta) was 77%. The remaining binding at 1 µM (ANKK1) was 78%, the remaining binding at 1 µM (HIPK1) was 63% and the remaining binding at 1 µM (CAMK4) was 76%. The remaining binding at 1 µM (GSK3A; GSK3A, 1 uM) was 100% and the remaining binding at 1 µM (CSNK2A2) was 97%.
`CCNc1cc(Nc2ccc(C(=O)N3CCC(N4CCOCC4)CC3)cc2OC)nc2[nH]cc(C(F)(F)F)c12` [Example 57, (4-((4-(ethylamino)-3-(trifluoromethyl)-1H-pyrrolo[2,3-b]pyridin-6-yl)amino)-3-methoxyphenyl) (4-morpholinopiperidin-1-yl)methanone] gave a remaining binding at 1 µM (CSNK1A1L) of 71%, a remaining binding at 1 µM (TAK1) of 79% and a remaining binding at 1 µM (FLT3(N841I)) of 85%. It also gave a remaining binding at 1 µM (PIK3CA(E542K)) of 100%, a remaining binding at 1 µM (BMX) of 89% and a remaining binding at 1 µM (CDK4-cyclinD1) of 95%. For the same compound, the remaining binding at 1 µM (EPHB4) was 88%, the remaining binding at 1 µM (RET(V804L)) was 91% and the remaining binding at 1 µM (DAPK2) was 71%. For the same compound, the remaining binding at 1 µM (HPK1) was 91%, the remaining binding at 1 µM (TNIK) was 94% and the remaining binding at 1 µM (FLT1) was 94%. For the same compound, the remaining binding at 1 µM (AAK1) was 54%, the remaining binding at 1 µM (MET(M1250T)) was 100% and the remaining binding at 1 µM (PRKX) was 80%. For the same compound, the remaining binding at 1 µM (PRKR) was 93%, the remaining binding at 1 µM (TRPM6) was 97% and the remaining binding at 1 µM (SRC) was 100%. It also gave a remaining binding at 1 µM (EGFR(G719S)) of 92%, a remaining binding at 1 µM [1] of 100% and a remaining binding at 1 µM (TAOK3) of 100%. It also gave a remaining binding at 1 µM (MARK1) of 82%, a remaining binding at 1 µM (MAP3K4) of 79% and a remaining binding at 1 µM (SNARK) of 100%. For the same compound, the remaining binding at 1 µM (PIK3CA(I800L)) was 69%, the remaining binding at 1 µM (MAP3K1) was 79% and the remaining binding at 1 µM (KIT(V559D)) was 77%. The remaining binding at 1 µM (CTK) was 84%, the remaining binding at 1 µM (ASK2) was 92% and the remaining binding at 1 µM [2] was 100%. For the same compound, the remaining binding at 1 µM (EGFR(L861Q)) was 94%, the remaining binding at 1 µM (KIT(D816V)) was 83% and the remaining binding at 1 µM (p38-beta) was 76%. The remaining binding at 1 µM (ANKK1) was 100%, the remaining binding at 1 µM (HIPK1) was 54% and the remaining binding at 1 µM (CAMK4) was 88%. For the same compound, the remaining binding at 1 µM (GSK3A) was 90% and the remaining binding at 1 µM (CSNK2A2) was 80%.
